Data as given in PMC12020230 (Fluids and Barriers of the CNS, 2025).

Assays:
[1] = system: choroid plexus; experiment: ^86Rb^+ efflux from excised choroid plexus upon PKA inhibition; type: cell-based, rat; conditions: H89 50 µM vs control, n = 5 of each, P < 0.01
[2] = system: idiopathic intracranial hypertension (IIH) patients; conditions: small clinical trial, ref [27]; cited from earlier work
[3] = ref [58]; cited from earlier work
[4] = system: patients; conditions: midazolam anaesthesia, ref [48]; cited from earlier work

## O=S(=O)(NCCNC/C=C/c1ccc(Br)cc1)c1cccc2cnccc12 [H89]
[1]
  reduction of K^+ efflux across the luminal membrane: 25%

## Exenatide: GLP-1R agonist Exenatide, which has the same amino acid sequence as Ex4
[2]
  ICP reductions: 1–3 mmHg

## semaglutide: another GLP-1 receptor agonist, semaglutide
[3]
  risk of NAION: associated with increased risk of non-arteritic anterior ischemic optic neuropathy (NAION)

## Cc1ncc2n1-c1ccc(Cl)cc1C(c1ccccc1F)=NC2 [midazolam]
[4]
  effect on ICP and perfusion pressure: reported to modulate ICP and perfusion pressure in patients
